Counter-ions that a name gives are not always drawn.
How the values were obtained:
Adrenergic β2 = target: T1, Adrenergic β2 (Homo sapiens, UniProt P07550); experiment: Alternative Adrenergic β2 Mediated cAMP Production in H292 cells (AlphaScreen cAMP detection); assay type: cell-based; details: for EC50: cAMP, test compounds incubated 60 minutes, 300 μM rolipram, read-out: β2 pEC50 (converted); for β2 Int Act: fraction relative to the maximum activity determined for formoterol, 60 minutes incubation
T1 construct: endogenous in cells; host or cells: H292 cells

[1] = target: T2, recombinant human Dopamine Subtype D2s receptors (Homo sapiens, UniProt P14416); experiment: Dopamine D2 selectivity assay, inhibition of [3H]-spiperone binding; details: membranes, [3H]-spiperone 0.16 nM; read-out: D2 bind pIC50 (converted)
T2 construct: purchased Perkin Elmer
T2 sequence (P14416 1-414 isoform P14416-2): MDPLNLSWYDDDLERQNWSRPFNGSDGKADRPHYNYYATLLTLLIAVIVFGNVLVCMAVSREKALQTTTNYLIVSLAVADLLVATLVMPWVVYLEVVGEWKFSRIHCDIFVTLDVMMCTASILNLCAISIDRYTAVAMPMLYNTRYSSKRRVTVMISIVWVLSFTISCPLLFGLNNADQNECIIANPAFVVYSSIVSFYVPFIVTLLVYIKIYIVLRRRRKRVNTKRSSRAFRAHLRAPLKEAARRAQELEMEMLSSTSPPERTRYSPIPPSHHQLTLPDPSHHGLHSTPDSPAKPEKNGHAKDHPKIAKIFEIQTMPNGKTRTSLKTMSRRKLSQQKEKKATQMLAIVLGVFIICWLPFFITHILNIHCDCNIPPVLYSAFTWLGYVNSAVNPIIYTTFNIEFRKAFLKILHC

T1 sequence (P07550 whole entry): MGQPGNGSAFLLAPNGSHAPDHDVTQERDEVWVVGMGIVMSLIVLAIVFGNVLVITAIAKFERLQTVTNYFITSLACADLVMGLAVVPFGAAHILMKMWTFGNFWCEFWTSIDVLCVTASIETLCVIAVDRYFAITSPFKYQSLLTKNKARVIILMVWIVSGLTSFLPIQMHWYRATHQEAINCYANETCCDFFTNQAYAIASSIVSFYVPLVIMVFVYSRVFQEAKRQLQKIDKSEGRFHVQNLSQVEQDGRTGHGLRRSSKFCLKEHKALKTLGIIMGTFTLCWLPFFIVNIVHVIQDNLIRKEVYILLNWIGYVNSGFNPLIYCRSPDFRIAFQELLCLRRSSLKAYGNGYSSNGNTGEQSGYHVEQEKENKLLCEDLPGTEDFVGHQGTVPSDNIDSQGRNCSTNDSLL

Structure (SMILES): O=c1[nH]c2c(O)ccc([C@@H](O)CNCCCS(=O)(=O)CCOCCc3cccc4ccccc34)c2s1 [Example 2, 4-Hydroxy-7-((1R)-1-hydroxy-2-{[3-({2-[2-(1-naphthyl)ethoxy]ethyl}sulfonyl)propyl]-amino}ethyl)-1,3-benzothiazol-2(3H)-one trifluoroacetate]
- EC50 (Adrenergic β2): 158 pM
- β2 Int Act (Adrenergic β2): 1

Structure (SMILES): Cl.O=c1[nH]c2c(O)ccc([C@@H](O)CNCCSCCOCCc3cccc4ccccc34)c2s1 [Example 4, 4-Hydroxy-7-((1R)-1-hydroxy-2-{[2-({2-[2-(1-naphthyl)ethoxy]ethyl}thio)ethyl]-amino}ethyl)-1,3-benzothiazol-2(3H)-one hydrochloride]
- EC50 (Adrenergic β2): 100 pM
- β2 Int Act (Adrenergic β2): 0.9
- IC50 [1]: 794000 pM
